Source: patent US20100311109A1, “NON-CONTACT METHOD FOR Q[…] IN THE DYNAMICS OF MICROBIAL POPULATIONS” (priority 2009, published 2010)

Test system: E. coli
Assay: Time-kill study of E. coli exposed to ciprofloxacin, measured by infrared thermography (Energy Number)
Assay type: cell-based, Escherichia coli
Settings: starting inoculum approx. 2×10^6 CFU/ml, 37° C., 0-24 hours
Procedure: It was desired to evaluate utility of the system in a real-time method to measure bacterial growth and death as a function of exposure to an antimicrobial. For that purpose, time-kill studies were performed using E. coli cultures, established substantially as set forth in Example 2. A series of microtiter plates were inoculated with an overnight culture of a representative gram-negative E. coli strain to achieve a starting inoculum of approximately 2×10^6 CFU/ml per well. Test wells were exposed to nine concentrations of an antimicrobial agent of a representative fluoroquinolone (ciprofloxacin) ranging from 0- to 32-fold minimum inhibitory concentration (MIC). […] of those treatments (0, […], 1, 2, 4, and 8-fold MIC) were subcultured for determination of viable cell counts. Control wells received no ciprofloxacin. […] Post-imaging, the contents of the designated wells were removed and the number of viable bacteria in each well was determined using drop and filter count methods.
FIGS. 7a and 7b set forth the changes in bacterial viable counts and the Energy Number of the medium over time, respectively. The Energy Number of the medium over time as determined from thermodynamic modeling of the IR images collected by the detector was highly correlated (R^2=0.9891) to the viable counts obtained following 24 hr incubation (see FIG. 7c).

**Q.** With `O=C(O)c1cn(C2CC2)c2cc(N3CCNCC3)c(F)cc2c1=O` [ciprofloxacin] as the compound, how does the “IRT time-kill result (Energy Number over time)” value (highest (16.0 and 32.0-fold MIC) concentration) read?
**A.** rapid bacterial killing

**Q.** What about the “IRT time-kill result (Energy Number over time)” value (lowest (0.125 and 0.25-fold MIC) concentration) of the same compound?
**A.** net bacterial growth
